Holding throughout (format): cell-based, human
Assay [1] concerns STING ubiquitination. The assay is described as follows: FLAG-ubiquitin immunoprecipitation of STING in 293T STING-HA / FLAG-ubiquitin cells. The settings on record: 2′3′-cGAMP, 2 hours; 0.5 μM MLN7243; FIG. 12A. How it is done:
293T cells were transduced with pTRIP-hPGK-Blast-2A-STING-HA and pTRIP-hPGK-Hygro-2A-FLAG-Ubiquitin and selected with […] Blasticidin (Invivogen) and 320 μg/mL Hygromycin (Invivogen) for one week. 1 million cells/well were plated in a 6 well plate the day prior to the stimulation. Cells were then stimulated with 300 μL cGAMP permeabilization buffer containing 1 μg/mL cGAMP for 10 minutes, washed with 3 mL of warm medium, and the medium was replaced. 3 wells per condition were harvested 2 hours post stimulation, washed with PBS and lysed with 550 μL of RIPA buffer for 10 minutes on ice. Lysates were cleared at 16000 g for 10 minutes at 4° C. 10% of the lysate was saved as input. The remaining lysates were incubated with 150 μL Pierce Anti-[…] Magnetic beads (Thermo Fisher) O/N at 4° C. with constant rotation. Beads were washed 3 times with a buffer containing 10 mM Tris-HCl pH7.5 (Thermo Fisher), 2 mM EDTA (Thermo Fisher), 1% Nonidet-P40 Substitute (Roche) and 50 mM NaCl (Thermo Fisher), and 2 times with RIPA buffer. Proteins were eluted by adding 150 μL of non-reducing Laemmli (Boston bioproducts) containing 20 mM DTT (Thermo Fisher) and boiled for 20 minutes. Input was diluted with 2× sample buffer (Sigma).
(§1) MLN7243 was added again after medium replacement. Cells were stimulated for the indicated times.

In assay [2] the test system is 293T stably expressing STING-HA. The assay can be described thus: Immunofluorescence of HGS, p62, CD63, LC3B and STING in 293T STING-HA after cGAMP. The settings on record: 293T STING-HA; cGAMP 2 hours; MLN7243; FIGS. 5E-5F. The protocol:
293T STING-TurboID were seeded directly on coverslips. 293T STING-HA were seeded on Fibronectin bovine plasma (Sigma-stock: 100×) coated coverslips. Cells were seeded the day before stimulation at 0.1 million cells/well density in 24 well plates. Cells were stimulated with cGAMP permeabilization buffer containing 1 μg/mL cGAMP for 10 minutes, washed with warm medium, and incubated for the indicated times. hTert-BJ1 mScarlet or mScarlet-UBAP1DN were seeded Fibronectin bovine plasma coated coverslips at 0.05 million cells/well density in a 24 well plate and fixed 6 hours post seeding. Cells were then fixed with 2% Paraformaldehyde (Electron Microscopy Sciences) in PHEM buffer (Electron Microscopy Sciences) for 30 minutes at 37° C., washed three times with PBS and quenched with freshly prepared 0.1M Glycine for 10 minutes. Coverslips were then permeabilized and blocked with 10% goat serum (Thermo Fisher) in PBS, 0.5% BSA (Seracare), 0.05% Saponin from Quillaja bark (Sigma) for 30 minutes. Coverslips were then stained with primary antibodies for 1-2 hours at room temperature in PBS, 0.5% BSA (Seracare), 0.05% Saponin from Quillaja bark (Sigma) with 10% goat serum, washed 5 times, and then stained with secondary antibodies in PBS, 0.5% BSA (Seracare), 0.05% Saponin from Quillaja bark (Sigma) for 1-2 hours. […] Images were analyzed in FiJi. […]

In assay [3] the test system is BJ1 fibroblasts. The assay is described as follows: Immunoblot of STING signaling in BJ1 fibroblasts stimulated with cGAMP. The note with it: cGAMP 2 hours, 0.5 μM MLN7243, FIG. 5D. The protocol: as §1
Samples for pull-downs or immunoprecipitations were treated as described in the corresponding paragraphs. For experiments involving seeding of cells in 6 well plates or 24 well plates (293 Ts and hTert-BJ1), one well per condition was harvested, lysed in RIPA buffer (Boston Bioproducts) containing complete, Mini, EDTA-free Protease Inhibitor Cocktail (Millipore Sigma) and PhosSTOP (Millipore Sigma) for 10 minutes on ice. Lysates were cleared by centrifugation at 16000 g for 10 minutes at 4° C. and Laemmli 6×, Sample buffer, SDS, and reducing agents (Boston Bioproducts) were added prior to loading. Samples were run on NuPAGE 4 to 12%, Bis-Tris Gels (Thermo Fisher) and transferred on nitrocellulose membrane with an iBlot2 (Thermo Fisher). Membranes were blocked in 5% non-fat milk in TBS Tween. Antibodies against phospho-proteins were incubated in 5% BSA TBS tween. ECL signal was recorded on a ChemiDoc Biorad Imager. Data was analyzed with ImageLab (Biorad).

In the case of `NS(=O)(=O)OC[C@H]1C[C@@H](Nc2ccnc3cc(-c4cccc(SC(F)(F)F)c4)nn23)[C@H](O)[C@@H]1O` [MLN7243], in assay [1], the STING ubiquitination entry is “blocked STING ubiquitination”. Further, in assay [2], the “HGS co-localization with p62” value is recorded as “failed to co-localize with p62” and the “HGS foci co-localizing with STING” value is recorded as “completely lost”. In assay [3], the STING degradation result was “abrogated STING degradation”, the “lipidated LC3B” value is reported as “induced accumulation of lipidated LC3B” and the phospho-STING signaling result is on record as “increased phospho-STING signaling”.
